# Laboratory results from patent publication US11117899B2, “[1,2,4]triazolo[1,5-c]pyrimidine derivative as A2A receptor inhibitor” (MEDSHINE DISCOVERY INC., priority 2017, dated 2021).
# System: not listed separately
# Test: Pharmacokinetics in female Balb/c mice
# Type: in vivo
# Settings: mouse, plasma, single intravenous injection / single oral administration
# Method: Objective: To test the pharmacokinetics of compounds in female Balb/c mice in vivo
# Balb/c mice (female, 15-30 g, 7-9 weeks old, Shanghai Lingchang)
# The pharmacokinetics profile of the compounds in rodent after intravenous injection and oral administrations was tested using a standard protocol. In the assay, the candidate compound was formulated into a clear solution and administrated to the mice through a single intravenous injection, and formulated into a uniform suspension and administrated to the mice through a single oral administration. […] The whole blood samples were collected within 24 hours, centrifuged at 3000 g at 4° C. for 15 minutes, and plasma samples were obtained by separating the supernatant. 20 times volume of acetonitrile solution containing an internal standard was added to precipitate proteins. After centrifugation, the supernatant was collected, to which an equal volume of water was added, and further centrifuged to collect the supernatant. The LC-MS/MS method was used to quantitatively analyze the plasma concentration, and the pharmacokinetics parameters, such as peak concentration, peak time, clearance rate, half-life, area under the curve, and bioavailability were calculated.
row,clearance [mL/min/kg],Structure (SMILES)
1,44.9,Cc1cc(-c2c(-c3cccc(F)c3)nc(N)n3ncnc23)cc(C(F)(F)F)n1 [Example A-2]
2,11.7,Cc1cc(-c2c(-c3ccccc3)nc(N)n3nc(C(F)(F)F)nc23)cc(C(F)(F)F)n1 [Example C-1]

# Same assay, conditions: mouse, plasma, single intravenous injection / single oral administration, read-out: Bioavailability F
row,bioavailability [%],Structure (SMILES)
1,62.1,Cc1cc(-c2c(-c3cccc(F)c3)nc(N)n3ncnc23)cc(C(F)(F)F)n1 [Example A-2]
2,40.5,Cc1cc(-c2c(-c3ccccc3)nc(N)n3nc(C(F)(F)F)nc23)cc(C(F)(F)F)n1 [Example C-1]

# Same assay, conditions: mouse, plasma, single intravenous injection / single oral administration, read-out: Concentration integral AUC
row,AUC [µM·h],Structure (SMILES)
1,5.93,Cc1cc(-c2c(-c3cccc(F)c3)nc(N)n3ncnc23)cc(C(F)(F)F)n1 [Example A-2]
2,13.2,Cc1cc(-c2c(-c3ccccc3)nc(N)n3nc(C(F)(F)F)nc23)cc(C(F)(F)F)n1 [Example C-1]

# Same assay, conditions: mouse, plasma, single intravenous injection / single oral administration, read-out: Half-life T1/2 (converted)
row,half-life [h],Structure (SMILES)
1,0.8,Cc1cc(-c2c(-c3cccc(F)c3)nc(N)n3ncnc23)cc(C(F)(F)F)n1 [Example A-2]
2,3.95,Cc1cc(-c2c(-c3ccccc3)nc(N)n3nc(C(F)(F)F)nc23)cc(C(F)(F)F)n1 [Example C-1]

# Biological target: T1, Human adenosine A2A receptor (Homo sapiens, UniProt P29274)
# T1 construct: host or cells: CHO
# Test: Human adenosine A2A receptor calcium flux assay
# Type: cell-based
# Settings: A2A stable CHO cell strain, antagonist mode against agonist NECA at EC80, FLIPR Fluo-4
# Method: Human adenosine A2A receptor calcium flux assay
# A2A stable cell strain was constructed by Shanghai WuXi PharmaTech, and the host cell was CHO.
# Fluo-4 Direct Kit (Invitrogen, Cat. No. F10471). After the fluorescent detection reagent (specifically binding to calcium ions and causing an increase in fluorescence signal) in the kit was incubated with the cells for a suitable period of time, the compound was added to stimulate the cells to cause changes in intracellular calcium flux, thereby causing changes in the fluorescent signal, which can reflect the strength of the agonistic or inhibitory activity of the compound.
# F12+10% fetal bovine serum+geneticin 300 ug/ml+blasticidin 2 ug/ml Compound dilution buffer:
# Hanks Balanced Salt Buffer (Invitrogen)+20 mM HEPES, configured before each use
# The test compounds were dissolved in DMSO to prepare 10 mM stock solutions. The test compounds were diluted to 0.2 mM with DMSO, and the reference compound CGS-15943 was diluted to 0.015 mM with DMSO. Next, 10 points of three-fold serial dilutions were made with ECHO. 900 nl was transferred to the compound plate (Greiner-781280), and 30 ul of compound dilution buffer was added. The final starting concentration of the test compounds was 1 uM and CGS-15943 was 0.075 uM.
# Cryopreserved A2A cells were resuscitated, and then resuspended in culture medium to 1×10^6 cells/ml. The suspension was seeded into 384-well polylysine-coated cell plates (Greiner-781946) at 20 μl/well and incubated overnight in a 5% CO2 incubator at 37° C.
# The cell plate prepared the day before was taken out from the incubator, and 20 ul of 2× Fluo-4 Direct™ buffer was added to each well. The plate was incubated for 50 minutes in a 5% CO2 incubator at 37° C. and allowed to stand at room temperature for 10 minutes.
# Dilution of agonist NECA: 10 points of three-fold serial dilutions were made with Echo for NECA from a starting concentration of 0.15 mM. 900 nL was then transferred to the corresponding compound plate; and then 30 μl of compound dilution buffer was added to the corresponding compound plate. The final starting concentration was 750 nM.
# FLIPR instrument software was run. According to the programmed procedure, 10 ul of compound dilution buffer was added to the cell plate and the fluorescence signal was read. 10 ul of the agonist reference compound at the indicated concentration was then added to the cell plate and the fluorescent signal was read. After reading, the data was exported by the “Max-Min”, “Read 90 to Maximum allowed” method in the software, and the EC80 of the A2A cell line was calculated. The agonist was prepared at a concentration of 6× EC80. A 6× EC80 concentration of a reference compound agonist of the corresponding cells was prepared with a buffer solution, and added at 30 ul/well to the corresponding compound plate for use.
# FLIPR instrument software was run. According to the programmed procedure, 10 μl of the test compounds and reference compound at an indicated concentration was added to the cell plate and the fluorescence signal was read. 10 ul of the reference compound agonist at a concentration of 6× EC80 was then added to the cell plate and the fluorescent signal was read. For the agonist detection of the compounds, the data was exported by the “Max-Min”, “Read 1 to 90” method in the software. For the antagonist detection of the compound, the data was exported by the “Max-Min”, “Read 90 to Maximum allowed” method in the software. Data were analyzed by GraphPad Prism 5.0 and the IC50 values of the test compounds were calculated.
# T1 sequence (P29274 whole entry): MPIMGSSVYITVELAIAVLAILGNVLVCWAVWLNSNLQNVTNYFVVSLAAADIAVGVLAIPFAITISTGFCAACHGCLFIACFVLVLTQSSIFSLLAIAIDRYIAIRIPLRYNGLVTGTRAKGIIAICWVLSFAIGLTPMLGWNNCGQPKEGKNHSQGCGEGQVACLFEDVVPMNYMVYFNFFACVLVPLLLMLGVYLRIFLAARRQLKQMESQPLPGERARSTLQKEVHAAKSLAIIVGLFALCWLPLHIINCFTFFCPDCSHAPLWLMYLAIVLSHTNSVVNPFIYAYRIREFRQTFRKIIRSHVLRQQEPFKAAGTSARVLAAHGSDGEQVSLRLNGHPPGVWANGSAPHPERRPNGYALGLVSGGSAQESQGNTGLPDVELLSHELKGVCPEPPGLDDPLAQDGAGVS
row,IC50 [nM],Structure (SMILES)
1,0.38,Cc1cc(-c2c(-c3cccc(F)c3)nc(N)n3ncnc23)cc(C(F)(F)F)n1 [Example A-2]
2,1.65,Cc1cc(-c2c(-c3ccccc3)nc(N)n3nc(C(F)(F)F)nc23)cc(C(F)(F)F)n1 [Example C-1]
3,0.8,Cc1cc(-c2c(-c3ccccc3)nc(N)n3nc(C)nc23)cc(Cl)n1 [Example C-21]
4,2.96,Cc1nc2c(-c3ccc4[nH]nnc4c3)c(-c3ccccc3)nc(N)n2n1 [Example C-22]
5,2.63,Nc1nc(-c2ccccc2)c(-c2ccc3[nH]nnc3c2)c2nc(COCc3ccccc3)nn12 [Example C-23]
6,0.95,Nc1nc(-c2ccccc2)c(-c2ccc3[nH]nnc3c2)c2nc(CO)nn12 [Example C-24]
7,3.16,CCc1nc2c(-c3ccc4[nH]nnc4c3)c(-c3ccccc3)nc(N)n2n1 [Example C-25]
8,4.34,Nc1nc(-c2ccccc2)c(-c2ccc3[nH]nnc3c2)c2nc(C3CC3)nn12 [Example C-26]
9,4.93,COc1ccccc1-c1nc(N)n2nc(C)nc2c1-c1cc(C)nc(C(F)(F)F)c1 [Example C-27]
10,1.5,Nc1nc(-c2ccccc2)c(-c2ccc3[nH]nnc3c2)c2nc(C(F)(F)F)nn12 [Example C-29]
11,2.99,CCc1nc2c(-c3cc(C)nc(C(F)(F)F)c3)c(-c3ccccc3OC)nc(N)n2n1 [Example C-30]
12,14.1,COc1ccccc1-c1nc(N)n2nc(C(F)(F)F)nc2c1-c1cc(C)nc(C(F)(F)F)c1 [Example C-31]
13,38.9,CCc1nc2c(-c3ccc4nn[nH]c4c3)c(-c3ccccc3OC)nc(N)n2n1 [Example C-32]
14,73.8,Nc1nc(-c2ccc(F)cc2F)c(-c2ccc3[nH]nnc3c2)c2nc(C(F)(F)F)nn12 [Example C-34]
15,4.13,CCc1nc2c(-c3cc(C)nc(C(F)(F)F)c3)c(-c3ccccc3F)nc(N)n2n1 [Example C-35]
16,7.92,CCc1nc2c(-c3cc(C)nc(C(F)(F)F)c3)c(-c3ccc(F)cc3F)nc(N)n2n1 [Example C-36]
17,4.68,CCc1nc2c(-c3ccc4nn[nH]c4c3)c(-c3ccccc3F)nc(N)n2n1 [Example C-37]
18,15.3,CCc1nc2c(-c3ccc4nn[nH]c4c3)c(-c3ccc(F)cc3F)nc(N)n2n1 [Example C-38]
19,10.9,COc1cc(F)ccc1-c1nc(N)n2nc(C)nc2c1-c1cc(C)nc(C(F)(F)F)c1 [Example C-39]
20,44.5,Cc1cc(-c2c(-c3ccc(F)cc3)nc(N)n3nc(C(F)(F)F)nc23)cc(C(F)(F)F)n1 [Example C-40]
21,10.1,Nc1nc(-c2ccc(F)cc2)c(-c2ccc3[nH]nnc3c2)c2nc(C(F)(F)F)nn12 [Example C-42]
22,0.67,Cc1cc(-c2c(-c3ccc(F)cc3)nc(N)n3nc(CO)nc23)cc(Cl)n1 [Example C-44]
23,2.06,Nc1nc(-c2ccc(F)cc2)c(-c2ccc3nn[nH]c3c2)c2nc(CO)nn12 [Example C-45]
24,13.6,Cc1cc(-c2c(-c3ccc(C)o3)nc(N)n3nc(C(F)(F)F)nc23)cc(C(F)(F)F)n1 [Example C-47]
25,11.3,Cc1ccc(-c2nc(N)n3nc(C(F)(F)F)nc3c2-c2ccc3[nH]nnc3c2)o1 [Example C-48]
26,50,Cc1nc2c(-c3ccc4[nH]nnc4c3)c(-c3ccc(F)cc3F)nc(N)n2n1 [Example C-49]

row,IC50 [nM],Structure (SMILES)
1,5.36,COc1ccccc1-c1nc(N)n2nc(CO)nc2c1-c1cc(C)nc(C(F)(F)F)c1 [Example C-50]
2,13.6,Cc1cc(-c2c(-c3ccc(F)cc3F)nc(N)n3nc(C)nc23)cc(C(F)(F)F)n1 [Example C-51]
3,1.75,Cc1cc(-c2c(-c3ccccc3F)nc(N)n3nc(CO)nc23)cc(C(F)(F)F)n1 [Example C-52]
4,7.73,Cc1cc(-c2c(-c3ccc(F)cc3F)nc(N)n3nc(CO)nc23)cc(C(F)(F)F)n1 [Example C-53]
5,1.08,Cc1cc(-c2c(-c3ccc(F)cc3)nc(N)n3nc(C)nc23)cc(Cl)n1 [Example C-54]
6,0.86,Cc1cc(-c2c(-c3ccc(F)cc3)nc(N)n3nc(CO)nc23)cc(C)n1 [Example C-55]
7,9.95,Cc1nc2c(-c3ccc4[nH]nnc4c3)c(-c3ccc(F)cc3)nc(N)n2n1 [Example C-59]
8,0.83,Cc1cc(-c2c(-c3ccc(F)cc3)nc(N)n3nc(C#N)nc23)cc(C)n1 [Example C-62]
9,7.22,Cc1cc(-c2c(-c3ccn(C)n3)nc(N)n3nc(C(F)(F)F)nc23)cc(C(F)(F)F)n1 [Example C-63]
10,0.36,Cc1cc(-c2c(-c3ccn(C)n3)nc(N)n3nc(C)nc23)cc(C(F)(F)F)n1 [Example C-64]
11,0.84,Cc1cc(-c2c(-c3ccc(F)cc3)nc(N)n3nc(CN(C)C)nc23)cc(Cl)n1 [Example C-65]
12,0.79,Cc1cc(-c2c(-c3ccc(C)o3)nc(N)n3nc(CO)nc23)cc(C(F)(F)F)n1 [Example C-66]
13,0.26,Cc1cc(-c2c(-c3ccc(C)o3)nc(N)n3nc(CO)nc23)cc(Cl)n1 [Example C-67]
14,0.64,COCCOCc1nc2c(-c3cc(C)nc(C(F)(F)F)c3)c(-c3ccc(F)cc3)nc(N)n2n1 [Example C-68]
15,54.3,COCCOCc1nc2c(-c3cc(C)nc(Cl)c3)c(-c3ccc(F)cc3)nc(N)n2n1 [Example C-69]
16,0.59,Cc1cc(-c2c(-c3ccc(F)cc3)nc(N)n3nc(CO[C@H]4CCOC4)nc23)cc(Cl)n1 [Example C-70]
17,0.82,Cc1cc(-c2c(-c3ccc(F)cc3)nc(N)n3nc(CO[C@H]4CCOC4)nc23)cc(C(F)(F)F)n1 [Example C-71]
18,0.16,Cc1cc(-c2c(-c3ccc(C)o3)nc(N)n3nc(CO[C@H]4CCOC4)nc23)cc(C(F)(F)F)n1 [Example C-72]
19,1.73,Cc1cc(-c2c(-c3ccc(F)cc3)nc(N)n3nc(C#N)nc23)cc(Cl)n1 [Example C-73]
20,1.72,Cc1cc(-c2c(-c3ccc(C)o3)nc(N)n3nc(C#N)nc23)cc(C(F)(F)F)n1 [Example C-74]
21,2.03,Cc1cc(-c2c(-c3ccc(F)cc3)nc(N)n3nc(C(C)(C)O)nc23)cc(C(F)(F)F)n1 [Example C-75]
22,5.61,Cc1cc(-c2c(-c3ccc(F)cc3)nc(N)n3nc(C#N)nc23)cc(C(F)(F)F)n1 [Example C-76]
23,6.84,CC(C)(O)c1nc2c(-c3cc(Cl)nc(C(F)(F)F)c3)c(-c3ccc(F)cc3)nc(N)n2n1 [Example C-77]
24,0.77,Cc1cc(-c2c(-c3ccc(F)cc3)nc(N)n3nc(C(C)(C)O)nc23)cc(Cl)n1 [Example C-78]
25,16.9,N#Cc1nc2c(-c3cc(Cl)nc(C(F)(F)F)c3)c(-c3ccc(F)cc3)nc(N)n2n1 [Example C-79]
26,1.82,Cc1cc(-c2c(-c3ccccc3)nc(N)n3nc(C(=O)O)nc23)cc(C(F)(F)F)n1 [Example C-80]
